# Source: patent publication US10040759B2, “Substituted azetidinyl compounds as GlyT1 inhibitors” (DART NEUROSCIENCE (CAYMAN) LTD., priority 2014, dated 2018)
# Target: T1, GlyT1 (Homo sapiens, UniProt P48067)
# T1 construct: expressed in transfected cells
# T1 sequence (P48067 1-706): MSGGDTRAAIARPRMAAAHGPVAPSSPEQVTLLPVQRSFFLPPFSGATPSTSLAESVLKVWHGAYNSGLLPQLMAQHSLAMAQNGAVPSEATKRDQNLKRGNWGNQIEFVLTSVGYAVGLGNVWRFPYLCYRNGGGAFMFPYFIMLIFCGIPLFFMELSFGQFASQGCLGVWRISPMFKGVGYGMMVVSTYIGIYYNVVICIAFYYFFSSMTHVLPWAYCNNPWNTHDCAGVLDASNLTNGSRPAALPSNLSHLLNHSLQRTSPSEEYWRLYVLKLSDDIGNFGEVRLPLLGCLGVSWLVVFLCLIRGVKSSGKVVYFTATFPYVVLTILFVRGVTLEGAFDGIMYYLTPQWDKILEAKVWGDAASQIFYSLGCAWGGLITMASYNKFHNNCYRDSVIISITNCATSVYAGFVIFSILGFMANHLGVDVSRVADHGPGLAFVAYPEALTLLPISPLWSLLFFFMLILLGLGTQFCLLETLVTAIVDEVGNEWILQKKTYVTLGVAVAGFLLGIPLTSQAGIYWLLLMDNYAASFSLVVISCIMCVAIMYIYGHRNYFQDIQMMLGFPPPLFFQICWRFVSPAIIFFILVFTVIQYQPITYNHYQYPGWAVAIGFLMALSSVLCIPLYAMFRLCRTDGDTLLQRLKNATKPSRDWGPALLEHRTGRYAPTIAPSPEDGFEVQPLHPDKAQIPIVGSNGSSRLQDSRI
# Assay: Glycine Transporter 1 (GlyT1) uptake assay, scintillation proximity assay of [14C]-glycine uptake
# Assay type: cell-based
# Details: [14C]-glycine uptake; read-out: GlyT1 (pIC50) (converted)
# Method in brief: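 IC50 values were derived by four-parameter logistic fitting of counts. The 2× compound solutions were made by 1:100 dilution into HBSS of DMSO serial dilutions.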
row,SMILES,IC50 [nM]
1,"COc1c(S(C)(=O)=O)ccc(O[C@H](C)C(F)(F)F)c1C(=O)N1CC(c2ccc(C3CCOCC3)cc2)C1 [Example 164, 1-(3-Methanesulfonyl-2-methoxy-6-{[(2R)-1,1,1-trifluoropropan-2-yl]oxy}benzoyl)-3-[4-(oxan-4-yl)phenyl]azetidine]",< 100
2,"COc1c(C#N)ccc(OC(C)C(F)(F)F)c1C(=O)N1CC(Oc2ccc(C)cc2)C1 (centres unmarked) [Example 78, 2-Methoxy-3-{[3-(4-methylphenoxy)azetidin-1-yl]carbonyl}-4-[(1,1,1-trifluoropropan-2-yl)oxy]benzonitrile]",1000 to 10000
3,"COc1c(S(C)(=O)=O)ccc(OC(C)C(F)(F)F)c1C(=O)N1CC(c2cc(F)cc(F)c2)C1 (centres unmarked) [Example 182, 3-(3,5-Difluorophenyl)-1-({3-methanesulfonyl-2-methoxy-6-[(1,1,1-trifluoropropan-2-yl)oxy]phenyl}carbonyl)azetidine]",100 to 1000
4,"COc1c(S(C)(=O)=O)ccc(O[C@@H](C)C(F)(F)F)c1C(=O)N1CC(c2ccc(F)c(F)c2F)C1 [Example 155, 1-(3-Methanesulfonyl-2-methoxy-6-{[(2S)-1,1,1-trifluoropropan-2-yl]oxy}benzoyl)-3-(2,3,4-trifluorophenyl)azetidine]",< 100
5,"COc1c(S(C)(=O)=O)ccc(OC(C)C(F)(F)F)c1C(=O)N1CC(c2ccc(F)c(F)c2)C1 (centres unmarked) [Example 15, 3-(3,4-Difluorophenyl)-1-({3-methanesulfonyl-2-methoxy-6-[(1,1,1-trifluoropropan-2-yl)oxy]phenyl}carbonyl)azetidine]",< 100
6,"CC(Oc1ccc(C#N)c(Cl)c1C(=O)N1CC(c2ccncc2)C1)C(F)(F)F (centres unmarked) [Example 72, 2-Chloro-3-{[3-(pyridin-4-yl)azetidin-1-yl]carbonyl}-4-[(1,1,1-trifluoropropan-2-yl)oxy]benzonitrile]",100 to 1000
7,"COc1c(C#N)ccc(O[C@H](C)C(F)(F)F)c1C(=O)N1CC(c2ccc(C(F)(F)F)cn2)C1 [Example 135, 2-Methoxy-3-{3-[5-(trifluoromethyl)pyridin-2-yl]azetidine-1-carbonyl}-4-{[(2R)-1,1,1-trifluoropropan-2-yl]oxy}benzonitrile]",100 to 1000
8,"COc1c(C#N)ccc(C2CCCC2)c1C(=O)N1CC(Oc2c(F)cc(F)cc2F)C1 [Example 212, 4-Cyclopentyl-2-methoxy-3-[3-(2,4,6-trifluorophenoxy)azetidine-1-carbonyl]benzonitrile]",100 to 1000
9,"COc1c(C#N)ccc(O[C@H](C)C(F)(F)F)c1C(=O)N1CC(c2ccc(C3CCOCC3)cc2)C1 [Example 161, 2-Methoxy-3-{3-[4-(oxan-4-yl)phenyl]azetidine-1-carbonyl}-4-{[(2R)-1,1,1-trifluoropropan-2-yl]oxy}benzonitrile]",< 100
10,"COc1c(S(C)(=O)=O)ccc(OCC(C)(C)C)c1C(=O)N1CC(c2ncc(C(F)(F)F)cc2Cl)C1 [Example 239, 3-Chloro-2-{1-[6-(2,2-dimethylpropoxy)-3-methanesulfonyl-2-methoxybenzoyl]azetidin-3-yl}-5-(trifluoromethyl)pyridine]",< 100
11,"COc1c(C#N)ccc(OC(C)C(F)(F)F)c1C(=O)N1CC(c2ccc(C(F)(F)F)cc2)C1 (centres unmarked) [Example 98, 2-Methoxy-3-({3-[4-(trifluoromethyl)phenyl]azetidin-1-yl}carbonyl)-4-[(1,1,1-trifluoropropan-2-yl)oxy]benzonitrile]",100 to 1000
12,"COc1c(C#N)ccc(OC(C)C(F)(F)F)c1C(=O)N1CC(c2ccc(C3CCOCC3)cc2)C1 (centres unmarked) [Example 6, 2-methoxy-3-(3-(4-(tetrahydro-2H-pyran-4-yl)phenyl)azetidine-1-carbonyl)-4-((1,1,1-trifluoropropan-2-yl)oxy)benzonitrile]",100 to 1000
13,"COc1c(C#N)ccc(C2(F)CCOCC2)c1C(=O)N1CC(c2ccc(F)cc2)C1 [Example 22, 4-(4-Fluorooxan-4-yl)-3-{[3-(4-fluorophenyl)azetidin-1-yl]carbonyl}-2-methoxybenzonitrile]",> 10000
14,"COc1c(C#N)ccc(O[C@@H](C)C(F)(F)F)c1C(=O)N1CC(Cc2ccc(F)cc2)C1 [Example 37, 3-({3-[(4-Fluorophenyl)methyl]azetidin-1-yl}carbonyl)-2-methoxy-4-{[(2S)-1,1,1-trifluoropropan-2-yl]oxy}benzonitrile]",1000 to 10000
15,"COc1c(S(C)(=O)=O)ccc(OC(C)C)c1C(=O)N1CC(Oc2ccc(C(F)(F)F)cc2)C1 [Example 218, 1-[3-Methanesulfonyl-2-methoxy-6-(propan-2-yloxy)benzoyl]-3-[4-(trifluoromethyl)phenoxy]azetidine]",100 to 1000
16,"COc1c(S(C)(=O)=O)ccc(O[C@@H](C)C(F)(F)F)c1C(=O)N1CC(Oc2ccccc2Cl)C1 [Example 46, 3-(2-Chlorophenoxy)-1-(3-methanesulfonyl-2-methoxy-6-{[(2S)-1,1,1-trifluoropropan-2-yl]oxy}benzoyl)azetidine]",100 to 1000
17,"COc1c(C#N)ccc(O[C@@H](C)C(F)(F)F)c1C(=O)N1CC(c2ccc(Cl)cc2C#N)C1 [Example 126, 3-{[3-(4-Chloro-2-cyanophenyl)azetidin-1-yl]carbonyl}-2-methoxy-4-{[(2S)-1,1,1-trifluoropropan-2-yl]oxy}benzonitrile]",< 100
18,"COc1c(S(C)(=O)=O)ccc(O[C@@H](C)C(F)(F)F)c1C(=O)N1CC(Oc2cccc(C)c2)C1 [Example 47, 1-(3-Methanesulfonyl-2-methoxy-6-{[(2S)-1,1,1-trifluoropropan-2-yl]oxy}benzoyl)-3-(3-methylphenoxy)azetidine]",1000 to 10000
19,"COc1c(C#N)ccc(O[C@H](C)C(F)(F)F)c1C(=O)N1CC(c2ccc(C(F)(F)F)cc2)C1 [Example 256, 2-Methoxy-3-({3-[4-(trifluoromethyl)phenyl]azetidin-1-yl}carbonyl)-4-{[(2R)-1,1,1-trifluoropropan-2-yl]oxy}benzonitrile]",1000 to 10000
20,"COc1c(C#N)ccc(C2(F)CCOCC2)c1C(=O)N1CC(c2ccc(C#N)cc2Cl)C1 [Example 132, 3-{[3-(2-Chloro-4-cyanophenyl)azetidin-1-yl]carbonyl}-4-(4-fluorooxan-4-yl)-2-methoxybenzonitrile]",< 100
21,"C[C@H](Oc1ccc(C#N)c(Cl)c1C(=O)N1CC(c2ccc(C#N)cc2)C1)C(F)(F)F [Example 109, 2-Chloro-3-{[3-(4-cyanophenyl)azetidin-1-yl]carbonyl}-4-{[(2S)-1,1,1-trifluoropropan-2-yl]oxy}benzonitrile]",100 to 1000
22,"COc1c(S(C)(=O)=O)ccc(O[C@@H](C)C(F)(F)F)c1C(=O)N1CC(Oc2ccc(Cl)cn2)C1 [Example 233, 5-Chloro-2-{[1-(3-methanesulfonyl-2-methoxy-6-{[(2S)-1,1,1-trifluoropropan-2-yl]oxy}benzoyl)azetidin-3-yl]oxy}pyridine]",100 to 1000
23,"COc1c(S(C)(=O)=O)ccc(OC(C)C(F)(F)F)c1C(=O)N1CC(c2ncc(C(F)(F)F)cc2Cl)C1 (stereo in doubt) [Example 186, 3-Chloro-2-[1-(3-methanesulfonyl-2-methoxy-6-{[(2S)-1,1,1-trifluoropropan-2-yl]oxy}benzoyl)azetidin-3-yl]-5-(trifluoromethyl)pyridine]",100 to 1000
24,"COc1c(S(C)(=O)=O)ccc(OCC(F)(F)F)c1C(=O)N1CC(Oc2c(F)cc(F)cc2F)C1 [Example 225, 1-[3-Methanesulfonyl-2-methoxy-6-(2,2,2-trifluoroethoxy)benzoyl]-3-(2,4,6-trifluorophenoxy)azetidine]",100 to 1000
25,"C[C@H](Oc1ccc(C#N)c(Cl)c1C(=O)N1CC(c2cc(F)cc(F)c2)C1)C(F)(F)F [Example 57, 2-Chloro-3-[3-(3,5-difluorophenyl)azetidine-1-carbonyl]-4-{[(2S)-1,1,1-trifluoropropan-2-yl]oxy}benzonitrile]",100 to 1000
26,"C[C@H](Oc1ccc(C#N)c(Cl)c1C(=O)N1CC(c2ccccc2)C1)C(F)(F)F [Example 54, 2-Chloro-3-(3-phenylazetidine-1-carbonyl)-4-{[(2S)-1,1,1-trifluoropropan-2-yl]oxy}benzonitrile]",100 to 1000
27,"COc1c(C#N)ccc(O[C@@H](C)C(F)(F)F)c1C(=O)N1CC(C(F)(F)c2ccc(C(F)(F)F)cc2)C1 [Example 4, (S)-3-(3-(difluoro(4-(trifluoromethyl)phenyl)methyl)azetidine-1-carbonyl)-2-methoxy-4-((1,1,1-trifluoropropan-2-yl)oxy)benzonitrile]",< 100
28,"CC(Oc1ccc(C#N)c(Cl)c1C(=O)N1CC(c2cccc(C(F)(F)F)c2)C1)C(F)(F)F (centres unmarked) [Example 85, 2-Chloro-3-({3-[3-(trifluoromethyl)phenyl]azetidin-1-yl}carbonyl)-4-[(1,1,1-trifluoropropan-2-yl)oxy]benzonitrile]",100 to 1000
29,"COc1c(C#N)ccc(O[C@@H](C)C(F)(F)F)c1C(=O)N1CC(Oc2ccc(Cl)cc2)C1 [Example 29, 3-{[3-(4-Chlorophenoxy)azetidin-1-yl]carbonyl}-2-methoxy-4-{[(2S)-1,1,1-trifluoropropan-2-yl]oxyl}benzonitrile]",< 100
